Laboratory results as given in patent US20250064061A1, “METHOD FOR CONTROLLING NOXIOUS ARTHROPODS” (SUMITOMO CHEMICAL COMPANY, LIMITED, priority 2021, published 2025).

Each compound was assayed on strain of German cockroaches that is resistant to multiple insecticides (assay: Topical application test on male adult German cockroach, multiple-insecticide-resistant strain). Conditions: 1 μL acetone solution applied to ventral surface of thorax of male adult; mortality after 4 days; Probit method; strain with L993F sodium channel and A302S GABAergic chloride channel mutations and enhanced metabolic detoxification.
Format: in vivo
Protocol: (§1) An acetone solution comprising a prescribed concentration of each of permethrin, deltamethrin, fipronil, indoxacarb, fluxametamide, broflanilide, nicofluprole, cyproflanilide, or isocycloseram was prepared, and 1 μL of the acetone solution was applied to a ventral surface of thorax of a male adult of German cockroach. Two strains of German cockroaches, i.e., the strain of German cockroaches that is susceptible to insecticides and the strain of German cockroaches that is resistant to multiple insecticides, were used. The strain of German cockroaches that is resistant to multiple insecticides is highly resistant to pyrethroid compounds, phenylpyrazole compounds, and oxadiazine compounds. As the resistance mechanism, the strain has the L993F mutation of voltage-dependent sodium channel resulting in pyrethroid resistance, the A302S mutation of GABAergic chloride ion channel resulting in dieldrin resistance, and enhanced metabolic detoxification activities. The application concentrations were three or more concentrations resulting in 0 to 100% of mortality of insects (comprising one or more concentrations resulting in less than 50% mortality of insects, and one or more concentrations resulting in more than 50% mortality of insects), and the number of test insects per concentration was ten in duplicate. After 4 days, the number of dead German cockroach(es) was investigated, and LD50 value was calculated by the Probit method. The mortalities of insects of 0% and 100% were corrected by the method of Miller and Tainter represented by the following formula (1), and corrected mortalities of insects were used when LD50 values were calculated. The resistance ratio was calculated according to the following formula (2) by using the obtained LD50 values. In this test, a dead insect refers to an insect in which the action was completely stopped.

Which “LD50 Resistant” value does the source give for `CN(C(=O)c1ccccc1)c1cccc(C(=O)Nc2c(Br)cc(C(F)(C(F)(F)F)C(F)(F)F)cc2C(F)(F)F)c1F` [Broflanilide, broflanilide] here?
Its value is 0.021 μg/insect.

For `O=C(Nc1c(Br)cc(C(F)(C(F)(F)F)C(F)(F)F)cc1C(F)(F)F)c1cccc(N(CC2CC2)C(=O)c2ccc(F)cc2)c1F` [Cyproflanilide, cyproflanilide], which “LD50 Resistant” value is on record?
The value was 0.035 μg/insect.

`CC1(C)[C@H](C(=O)O[C@H](C#N)c2cccc(Oc3ccccc3)c2)[C@@H]1C=C(Br)Br` [Deltamethrin, deltamethrin] was tested. Which “LD50 Resistant” value did it give?
Its value is 0.68 μg/insect.

How did the “LD50 Resistant” value turn out when `N#Cc1nn(-c2c(Cl)cc(C(F)(F)F)cc2Cl)c(N)c1[S+]([O-])C(F)(F)F` (stereo not shown) [Fipronil, fipronil] was run?
Its value is 0.14 μg/insect.

For `CON=CNC(=O)c1ccc(C2=NOC(c3cc(Cl)cc(Cl)c3)(C(F)(F)F)C2)cc1C` (stereo not shown) [Fluxametamide, fluxametamide], which “LD50 Resistant” value is on record?
Its value is 2.7 μg/insect.

For `COC(=O)N(C(=O)N1CO[C@@]2(C(=O)OC)Cc3cc(Cl)ccc3C2=N1)c1ccc(OC(F)(F)F)cc1` [Indoxacarb, indoxacarb], which “LD50 Resistant” value is on record?
The value was over 50 μg/insect.

For `CCN1OCC(NC(=O)c2ccc(C3=NOC(c4cc(Cl)c(F)c(Cl)c4)(C(F)(F)F)C3)cc2C)C1=O` (stereo not shown) [Isocycloseram, isocycloseram], which “LD50 Resistant” value is on record?
The value was 0.10 μg/insect.

`CN(C(=O)c1cc(-c2cnn(-c3c(Cl)cc(C(F)(C(F)(F)F)C(F)(F)F)cc3Cl)c2)cnc1Cl)C1CC1` [Nicofluprole, nicofluprole] was tested. Which “LD50 Resistant” value did it give?
The value was 0.0065 μg/insect.

`CC1(C)C(C=C(Cl)Cl)C1C(=O)OCc1cccc(Oc2ccccc2)c1` (stereo not shown) [Permethrin, permethrin] was tested. Which “LD50 Resistant” value did it give?
Its value is over 50 μg/insect.

Same assay, conditions: calculated by formula (2) from the LD50 values of the resistant and susceptible strains

How did the Resistance ratio turn out when `CN(C(=O)c1ccccc1)c1cccc(C(=O)Nc2c(Br)cc(C(F)(C(F)(F)F)C(F)(F)F)cc2C(F)(F)F)c1F` [Broflanilide, broflanilide] was run?
Its Resistance ratio is 2.3.

Which Resistance ratio does the source give for `O=C(Nc1c(Br)cc(C(F)(C(F)(F)F)C(F)(F)F)cc1C(F)(F)F)c1cccc(N(CC2CC2)C(=O)c2ccc(F)cc2)c1F` [Cyproflanilide, cyproflanilide] here?
Its Resistance ratio is 1.2.

For `CC1(C)[C@H](C(=O)O[C@H](C#N)c2cccc(Oc3ccccc3)c2)[C@@H]1C=C(Br)Br` [Deltamethrin, deltamethrin], which Resistance ratio is on record?
The Resistance ratio was 43.

`N#Cc1nn(-c2c(Cl)cc(C(F)(F)F)cc2Cl)c(N)c1[S+]([O-])C(F)(F)F` (stereo not shown) [Fipronil, fipronil] was tested. Which Resistance ratio did it give?
Its Resistance ratio is 41.

How did the Resistance ratio turn out when `CON=CNC(=O)c1ccc(C2=NOC(c3cc(Cl)cc(Cl)c3)(C(F)(F)F)C2)cc1C` (stereo not shown) [Fluxametamide, fluxametamide] was run?
Its Resistance ratio is 46.

For `COC(=O)N(C(=O)N1CO[C@@]2(C(=O)OC)Cc3cc(Cl)ccc3C2=N1)c1ccc(OC(F)(F)F)cc1` [Indoxacarb, indoxacarb], which Resistance ratio is on record?
The Resistance ratio was over 200.

`CCN1OCC(NC(=O)c2ccc(C3=NOC(c4cc(Cl)c(F)c(Cl)c4)(C(F)(F)F)C3)cc2C)C1=O` (stereo not shown) [Isocycloseram, isocycloseram] was tested. Which Resistance ratio did it give?
Its Resistance ratio is 1.7.

With `CN(C(=O)c1cc(-c2cnn(-c3c(Cl)cc(C(F)(C(F)(F)F)C(F)(F)F)cc3Cl)c2)cnc1Cl)C1CC1` [Nicofluprole, nicofluprole] as the compound, how does the Resistance ratio read?
The Resistance ratio was 2.4.

Which Resistance ratio does the source give for `CC1(C)C(C=C(Cl)Cl)C1C(=O)OCc1cccc(Oc2ccccc2)c1` (stereo not shown) [Permethrin, permethrin] here?
Its Resistance ratio is over 180.

Same assay, conditions: conclusion drawn from Table 1

For `CN(C(=O)c1ccccc1)c1cccc(C(=O)Nc2c(Br)cc(C(F)(C(F)(F)F)C(F)(F)F)cc2C(F)(F)F)c1F` [Broflanilide, broflanilide], which “Control of harmful arthropods showing high resistance to permethrin, deltamethrin, fipronil, indoxacarb and fluxametamide” value is on record?
The value was “can effectively control”.

How did the “Control of harmful arthropods showing high resistance to permethrin, deltamethrin, fipronil, indoxacarb and fluxametamide” value turn out when `O=C(Nc1c(Br)cc(C(F)(C(F)(F)F)C(F)(F)F)cc1C(F)(F)F)c1cccc(N(CC2CC2)C(=O)c2ccc(F)cc2)c1F` [Cyproflanilide, cyproflanilide] was run?
Its value is “can effectively control”.

For `CCN1OCC(NC(=O)c2ccc(C3=NOC(c4cc(Cl)c(F)c(Cl)c4)(C(F)(F)F)C3)cc2C)C1=O` (stereo not shown) [Isocycloseram, isocycloseram], which “Control of harmful arthropods showing high resistance to permethrin, deltamethrin, fipronil, indoxacarb and fluxametamide” value is on record?
Its value is “can effectively control”.

`CN(C(=O)c1cc(-c2cnn(-c3c(Cl)cc(C(F)(C(F)(F)F)C(F)(F)F)cc3Cl)c2)cnc1Cl)C1CC1` [Nicofluprole, nicofluprole] was tested. Which “Control of harmful arthropods showing high resistance to permethrin, deltamethrin, fipronil, indoxacarb and fluxametamide” value did it give?
Its value is “can effectively control”.

Each compound was assayed on strain of German cockroaches that is susceptible to insecticides (assay: Topical application test on male adult German cockroach, insecticide-susceptible strain). Conditions: 1 μL acetone solution applied to ventral surface of thorax of male adult; mortality after 4 days; Probit method.
Format: in vivo
Protocol: as §1

`CN(C(=O)c1ccccc1)c1cccc(C(=O)Nc2c(Br)cc(C(F)(C(F)(F)F)C(F)(F)F)cc2C(F)(F)F)c1F` [Broflanilide, broflanilide] was tested. Which “LD50 Susceptible” value did it give?
Its value is 0.0093 μg/insect.

How did the “LD50 Susceptible” value turn out when `O=C(Nc1c(Br)cc(C(F)(C(F)(F)F)C(F)(F)F)cc1C(F)(F)F)c1cccc(N(CC2CC2)C(=O)c2ccc(F)cc2)c1F` [Cyproflanilide, cyproflanilide] was run?
The value was 0.028 μg/insect.

For `CC1(C)[C@H](C(=O)O[C@H](C#N)c2cccc(Oc3ccccc3)c2)[C@@H]1C=C(Br)Br` [Deltamethrin, deltamethrin], which “LD50 Susceptible” value is on record?
Its value is 0.016 μg/insect.

With `N#Cc1nn(-c2c(Cl)cc(C(F)(F)F)cc2Cl)c(N)c1[S+]([O-])C(F)(F)F` (stereo not shown) [Fipronil, fipronil] as the compound, how does the “LD50 Susceptible” value read?
The value was 0.0034 μg/insect.

For `CON=CNC(=O)c1ccc(C2=NOC(c3cc(Cl)cc(Cl)c3)(C(F)(F)F)C2)cc1C` (stereo not shown) [Fluxametamide, fluxametamide], which “LD50 Susceptible” value is on record?
Its value is 0.059 μg/insect.

How did the “LD50 Susceptible” value turn out when `COC(=O)N(C(=O)N1CO[C@@]2(C(=O)OC)Cc3cc(Cl)ccc3C2=N1)c1ccc(OC(F)(F)F)cc1` [Indoxacarb, indoxacarb] was run?
Its value is 0.25 μg/insect.

Which “LD50 Susceptible” value does the source give for `CCN1OCC(NC(=O)c2ccc(C3=NOC(c4cc(Cl)c(F)c(Cl)c4)(C(F)(F)F)C3)cc2C)C1=O` (stereo not shown) [Isocycloseram, isocycloseram] here?
The value was 0.059 μg/insect.

Which “LD50 Susceptible” value does the source give for `CN(C(=O)c1cc(-c2cnn(-c3c(Cl)cc(C(F)(C(F)(F)F)C(F)(F)F)cc3Cl)c2)cnc1Cl)C1CC1` [Nicofluprole, nicofluprole] here?
Its value is 0.0027 μg/insect.

For `CC1(C)C(C=C(Cl)Cl)C1C(=O)OCc1cccc(Oc2ccccc2)c1` (stereo not shown) [Permethrin, permethrin], which “LD50 Susceptible” value is on record?
Its value is 0.28 μg/insect.
